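A five-concentration, 48-hour dose response in 96-well plates underlies each endpoint, interpolated linearly between surrounding concentrations. At the GI50, growth is halved.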 Active and inactive are the calls of the source. Rule as the data show it: active = GI50 up to about 1.1 µM and inactive = higher. Where a SMILES comes first, the peptide text is derived from it. [ ]: non-standard residue; d: D form. The star is where a group is joined. ξ: configuration not given here. NMeF = CN[CH](Cc1ccccc1)C(=O)O; ξNMe2Val = CC(C)C(C(=O)*)N(C)C; NMeV = CN[CH](C(=O)O)C(C)C; OtBu = CC(C)(C)O*
How the values were obtained:
Test in all cases: growth of human tumour cells (NCI), 48 h
SNB-19 = test system: SNB-19
786-0 = test system: 786-0
HOP-92 = test system: HOP-92
K562 = test system: K562
SN12C = test system: SN12C
MCF7 = test system: MCF7
SK-MEL-28 = test system: SK-MEL-28
RXF 393 = test system: RXF 393
ACHN = test system: ACHN
DU-145 = test system: DU-145
A549 = test system: A549
BT-549 = test system: BT-549
SF-539 = test system: SF-539
NCI-H460 = test system: NCI-H460
HCT-15 = test system: HCT-15
SK-MEL-2 = test system: SK-MEL-2
OVCAR-5 = test system: OVCAR-5
SNB-75 = test system: SNB-75
NCI-H226 = test system: NCI-H226
DMS-273 = test system: DMS-273

Compound | GI50 (SNB-19) | GI50 (786-0) | GI50 (HOP-92) | GI50 (K562) | GI50 (SN12C) | GI50 (MCF7) | GI50 (SK-MEL-28) | GI50 (RXF 393) | GI50 (ACHN) | GI50 (DU-145) | GI50 (A549) | GI50 (BT-549) | GI50 (SF-539) | GI50 (NCI-H460) | GI50 (HCT-15) | GI50 (SK-MEL-2) | GI50 (OVCAR-5) | GI50 (SNB-75) | GI50 (NCI-H226) | GI50 (DMS-273)
Cc1cc(C)c2c(c1)CC1(Cc3cc(C)c(C)cc3C1=O)C2=O (stereo not drawn) | > 100 µM (inactive) | 71.9 µM (inactive) | 60.5 µM (inactive) | > 100 µM (inactive) | > 100 µM (inactive) | > 100 µM (inactive) | > 100 µM (inactive) | 44.9 µM (inactive) | > 100 µM (inactive) | > 100 µM (inactive) | 59.4 µM (inactive) | > 100 µM (inactive) | 46.2 µM (inactive) | > 100 µM (inactive) | > 100 µM | > 100 µM (inactive) | 48.1 µM (inactive) | > 100 µM (inactive) | > 100 µM (inactive) | 
CCOC(=O)CC(=O)C(=O)NN=C1NCCN1 | > 100 µM (inactive) | > 100 µM (inactive) | > 100 µM (inactive) | > 100 µM (inactive) | > 100 µM (inactive) | > 100 µM (inactive) | > 100 µM (inactive) | > 100 µM (inactive) | > 100 µM (inactive) | > 100 µM (inactive) | > 100 µM (inactive) | > 100 µM (inactive) | > 100 µM (inactive) | > 100 µM (inactive) | > 100 µM | > 100 µM (inactive) | > 100 µM (inactive) | > 100 µM (inactive) | > 100 µM (inactive) | 
CC(=O)C(C(c1ccccc1)N1CCOCC1)N1CCOCC1 (stereo not drawn) | > 100 µM (inactive) | > 100 µM (inactive) | > 100 µM (inactive) | > 100 µM (inactive) | > 100 µM (inactive) | > 100 µM (inactive) | > 100 µM (inactive) | > 100 µM (inactive) | > 100 µM (inactive) | > 100 µM (inactive) | > 100 µM (inactive) | > 100 µM (inactive) | > 100 µM (inactive) | 19.2 µM (inactive) | > 100 µM | > 100 µM (inactive) | > 100 µM (inactive) | > 100 µM (inactive) | > 100 µM (inactive) | 
CC(C)C(C(=O)N(C)C(Cc1ccccc1)C(=O)N(C)C(C(=O)N(C)C(C(=O)N1CCCC1C(=O)OC(C)(C)C)C(C)C)C(C)C)N(C)C (stereo not drawn) (ξNMe2Val-[NMeF][NMeV][NMeV]P-OtBu; configuration not given here) | 58.3 µM (inactive) | 52.7 µM (inactive) |  | 31.6 µM (inactive) | 50.1 µM (inactive) |  |  |  | 65 µM (inactive) |  | 71.1 µM (inactive) |  | 26.1 µM (inactive) | 43.2 µM (inactive) | 51.6 µM |  |  |  | > 100 µM (inactive) | 21 µM (inactive)
C/C=C1/CN2CCc3c([nH]c4ccccc34)[C@@H]2C[C@@H]1Cc1nccc2c1[nH]c1cc(O)ccc12 | 2.26 µM (inactive) | 1.61 µM (inactive) | 6.38 µM (inactive) | 2.13 µM (inactive) | 1.66 µM (inactive) | 2.62 µM (inactive) | 1.92 µM (inactive) | 2.24 µM (inactive) | 2.29 µM (inactive) | 2.07 µM (inactive) | 2.23 µM (inactive) | 13.9 µM (inactive) | 2.02 µM (inactive) | 16.5 µM (inactive) | 2.9 µM | 2.05 µM (inactive) | 2.93 µM (inactive) | 1.64 µM (inactive) | 3.85 µM (inactive) | 
Nc1ncc(Cl)c(NCC2(CO)CC(CCc3ccccc3)C2)n1 (stereo not drawn) | > 100 µM (inactive) | > 100 µM (inactive) | 5.69 µM (inactive) | 0.321 µM (active) | > 100 µM (inactive) | 0.438 µM (active) | > 100 µM (inactive) | > 100 µM (inactive) | 34 µM (inactive) | > 100 µM (inactive) | > 21.1 µM (inactive) | > 100 µM (inactive) | > 100 µM (inactive) | > 55 µM (inactive) | > 100 µM | > 100 µM (inactive) | > 100 µM (inactive) | 46.2 µM (inactive) | > 100 µM (inactive) | 
CCC(C)C1NC(=O)C(NC(=O)c2c3nc4c(C(=O)NC5C(=O)NC(C(C)CC)C(=O)N6CCCC6C(=O)N(C)CC(=O)N(C)C(C(C)C)C(=O)OC5C)ccc(C)c4oc-3c(C)c(=O)c2O)C(C)OC(=O)C(C(C)C)N(C)C(=O)CN(C)C(=O)C2CCCN2C1=O (stereo not drawn) | 11.5 µM (inactive) | 3.37 µM (inactive) | 6.76 µM (inactive) | 0.74 µM (active) | 1.17 µM (inactive) | 1.11 µM (active) | 5.24 µM (inactive) | 2.54 µM (inactive) | 4.89 µM (inactive) | 5.78 µM (inactive) | 2.47 µM (inactive) | 5.81 µM (inactive) | 0.838 µM (active) | 0.174 µM (active) | 16.6 µM | 2.07 µM (inactive) | 11.6 µM (inactive) | 2.62 µM (inactive) | 0.881 µM (active) | 
C=Cc1c(C)c2cc3nc(c4c5[nH]c(cc6nc(cc1[nH]2)C(C)=C6CC)c(C)c5C(=O)C4C(=O)OC)C(CCC(=O)OC)C3C (stereo not drawn) | > 100 µM (inactive) | > 100 µM (inactive) | > 100 µM (inactive) | > 100 µM (inactive) | > 100 µM (inactive) | > 100 µM (inactive) | > 100 µM (inactive) | > 100 µM (inactive) | > 100 µM (inactive) | 40.4 µM (inactive) | > 100 µM (inactive) | > 100 µM (inactive) | > 100 µM (inactive) | > 100 µM (inactive) | > 100 µM | > 100 µM (inactive) | > 100 µM (inactive) | > 100 µM (inactive) | > 100 µM (inactive) | 
CC(=O)C(CN1CCOCC1)C(c1ccccc1)c1c(O)c2ccccc2oc1=O (stereo not drawn) | > 100 µM (inactive) | > 100 µM (inactive) | 32 µM (inactive) | > 100 µM (inactive) | > 100 µM (inactive) | > 100 µM (inactive) | > 100 µM (inactive) | 31.6 µM (inactive) | > 100 µM (inactive) | > 100 µM (inactive) | > 100 µM (inactive) | > 100 µM (inactive) | > 100 µM (inactive) | > 100 µM (inactive) | > 100 µM | > 100 µM (inactive) | > 100 µM (inactive) | > 100 µM (inactive) | > 100 µM (inactive) | 
CC1(C)C(CBr)=[N+]([O-])C(C)(C)N1O | > 10 µM (inactive) | 5.71 µM (inactive) | 2.27 µM (inactive) | > 4.93 µM (inactive) | 4.04 µM (inactive) | 4.91 µM (inactive) | > 10 µM (inactive) | 3.31 µM (inactive) | 3.68 µM (inactive) | > 10 µM (inactive) | > 10 µM (inactive) | 2.64 µM (inactive) | > 5.38 µM (inactive) | > 10 µM (inactive) | 2.55 µM | > 9.29 µM (inactive) | > 10 µM (inactive) | 3.17 µM (inactive) | > 10 µM (inactive) | 
NC(=O)C1CCCN1Cc1ccc2c(c1)OCO2 (stereo not drawn) | > 100 µM (inactive) | > 100 µM (inactive) | > 100 µM (inactive) | > 100 µM (inactive) | > 100 µM (inactive) | > 100 µM (inactive) | > 100 µM (inactive) | > 100 µM (inactive) | > 100 µM (inactive) | > 100 µM (inactive) | > 100 µM (inactive) | > 100 µM (inactive) | > 100 µM (inactive) | > 100 µM (inactive) | > 100 µM | > 100 µM (inactive) | > 100 µM (inactive) | > 100 µM (inactive) | > 100 µM (inactive) | 
COC[C@H]1C(=O)NCC(=O)N2N=CCC[C@H]2C(=O)N(O)[C@H](C)C(=O)O[C@@H](C(C)C)[C@H](NC(=O)[C@@](C)(O)[C@]2(O)CC[C@@H](CC(C)C)[C@H](C)O2)C(=O)N2NCCC[C@@H]2C(=O)N1O | 0.0163 µM (active) | 0.0174 µM (active) | 0.0174 µM (active) | 0.02 µM (active) | 0.0185 µM (active) | 0.0168 µM (active) | 0.0174 µM (active) | 0.0172 µM (active) | 0.0324 µM (active) | 0.0343 µM (active) | 0.019 µM (active) | 0.0166 µM (active) | 0.0172 µM (active) | 0.0166 µM (active) | 0.12 µM | 0.0164 µM (active) | 0.0178 µM (active) | < 0.0109 µM (active) | 0.0197 µM (active) | 
C[C@@H](CC(O)C(O)C(C)(C)O)C1CCC23CC12CCC1[C@@]2(C)CCC(=O)C(C)(C)C2CC(OC2OC(CO)C(O)C(O)C2O)[C@]13C (stereo partly drawn) | > 10 µM (inactive) | > 10 µM (inactive) | > 10 µM (inactive) | > 10 µM (inactive) | > 10 µM (inactive) | > 10 µM (inactive) | > 10 µM (inactive) | > 10 µM (inactive) | > 10 µM (inactive) | > 10 µM (inactive) | > 10 µM (inactive) | > 10 µM (inactive) | > 10 µM (inactive) | > 10 µM (inactive) | > 10 µM | > 10 µM (inactive) | > 10 µM (inactive) | > 10 µM (inactive) | > 10 µM (inactive) | 
C/C=C/C(CC(O)(C(F)(F)F)C(F)(F)F)=N/NC(N)=S | > 10 µM (inactive) | > 10 µM (inactive) | > 10 µM (inactive) | > 10 µM (inactive) | > 10 µM (inactive) | > 10 µM (inactive) | > 10 µM (inactive) | > 10 µM (inactive) | > 10 µM (inactive) | > 10 µM (inactive) | > 10 µM (inactive) | > 10 µM (inactive) | > 10 µM (inactive) | > 10 µM (inactive) | > 10 µM | > 10 µM (inactive) | > 10 µM (inactive) | > 10 µM (inactive) | > 10 µM (inactive) | 
